In patent US9617244B2, “Antibacterial quinoline derivatives” (JANSSEN PHARMACEUTICA NV, priority 2012, dated 2017):
≈ marks a conversion by molar mass, not a printed value.

Columns and labels:
[1] = test system: Staphylococcus aureus (ATCC29213); experiment: In-vitro anti-bacterial activity, microtitre plate assay, IC90 determination (non-mycobacterial strains); assay type: cell-based; settings: 90% inhibitory concentration for bacterial growth, resazurin fluorescence; for IC90 STA B29213: 24 hours; for IC90: Staphylococcus aureus, ATCC29213, 24 h, read-out: IC90 STA B29213
In short: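 Inoculum of about 100 TCID50 (10–60 CFU/well) in Mueller-Hinton broth, serial five-fold compound dilutions, 24 h at 37 °C in air. Growth read by resazurin fluorescence (ex 530/em 590 nm); IC90 in μg/ml as 90% growth inhibition.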

[2] = test system: Mycobacterium smegmatis (ATCC607); experiment: In-vitro anti-bacterial activity against strain M. Smegmatis ATCC607; assay type: cell-based; settings: 90% inhibitory concentration for bacterial growth, Alamar Blue fluorescence; for IC90 MSM 607: 48 hours; for IC90: Mycolicibacterium smegmatis, ATCC607, 48 h, read-out: IC90 MSM 607
In short: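 Serial five-fold compound dilutions in BSA-supplemented wells, inoculated with ~250 CFU/well in Mueller-Hinton broth, incubated 48 h at 37 °C, 5% CO2. Growth read by Alamar Blue fluorescence (ex 530/em 590 nm); IC90 in μg/ml.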

COc1nc2ccc(SC)cc2cc1C(c1ccccc1)C1(O)CCNC(c2ccc(F)cc2C)C1 (stereo not drawn) [Compound 195]
IC90 STA B29213 [1]: 3.17 µg/mL (≈ 6.31 µM) | IC90 MSM 607 [2]: 2.00 µg/mL (≈ 3.98 µM) | melting point: 153 °C

COc1nc2ccc(SC)cc2cc1C(c1ccccc1)C1(O)CCNC(c2ccc(F)cc2C)C1 (stereo not drawn) [Compound 197]
IC90 STA B29213 [1]: 1.59 µg/mL (≈ 3.16 µM) | IC90 MSM 607 [2]: 1.59 µg/mL (≈ 3.16 µM) | melting point: 138 °C

COc1nc2ccc(SC)cc2cc1C(c1ccccc1)C1(O)CCNC(c2ccc(F)cc2C)C1 (stereo not drawn) [Compound 198]
IC90 STA B29213 [1]: 3.17 µg/mL (≈ 6.31 µM) | IC90 MSM 607 [2]: 3.17 µg/mL (≈ 6.31 µM) | melting point: 187 °C

COc1nc2ccc(S(C)(=O)=O)cc2cc1C(c1ccc(Cl)cc1)C1(O)CCNC(c2ccc(F)cc2C)C1 (stereo not drawn) [Compound 199]
IC90 STA B29213 [1]: 7.16 µg/mL (≈ 12.6 µM) | IC90 MSM 607 [2]: 7.16 µg/mL (≈ 12.6 µM) | melting point: 192 °C

COc1nc2ccc(S(C)(=O)=O)cc2cc1C(c1ccc(Cl)cc1)C1(O)CCNC(c2ccc(F)cc2C)C1 (stereo not drawn) [Compound 200]
IC90 STA B29213 [1]: 5.69 µg/mL (≈ 10 µM) | IC90 MSM 607 [2]: 5.69 µg/mL (≈ 10 µM) | melting point: 187 °C

COc1nc2ccc(S(C)(=O)=O)cc2cc1C(c1ccc(Cl)cc1)C1(O)CCNC(c2ccc(F)cc2C)C1 (stereo not drawn) [Compound 202]
IC90 STA B29213 [1]: 1.80 µg/mL (≈ 3.16 µM) | IC90 MSM 607 [2]: 2.27 µg/mL (≈ 3.99 µM) | melting point: 186 °C

CSc1ccc2[nH]c(=O)c(C(c3ccc(Cl)cc3)C3(O)CCNC(Cc4ccc(F)c(F)c4)C3)cc2c1 (stereo not drawn) [Compound 203]
IC90 STA B29213 [1]: 10.80 µg/mL (≈ 20 µM) | IC90 [2]: 6.81 µg/mL (≈ 12.6 µM) | melting point: > 250 °C

COc1nc2ccc(S(C)(=O)=O)cc2cc1C(c1ccc(Cl)cc1)C1(O)CCNC(Cc2ccc(F)c(F)c2)C1 (stereo not drawn) [Compound 211]
IC90 [1]: 14.8 µg/mL (≈ 25.1 µM) | IC90 [2]: 7.39 µg/mL (≈ 12.6 µM) | melting point: 150 °C

COc1nc2ccc(S(C)(=O)=O)cc2cc1C(c1ccc(Cl)cc1)C1(O)CCNC(c2ccc(F)cc2C)C1 (stereo not drawn) [Compound 216]
IC90 STA B29213 [1]: 7.16 µg/mL (≈ 12.6 µM) | IC90 MSM 607 [2]: 5.69 µg/mL (≈ 10 µM) | melting point: 152 °C

COc1nc2ccc(S(C)(=O)=O)cc2cc1C(c1ccc(Cl)cc1)C1(O)CCNC(c2ccc(F)cc2C)C1 (stereo not drawn) [Compound 217]
IC90 STA B29213 [1]: 1.27 µg/mL (≈ 2.23 µM) | IC90 MSM 607 [2]: 0.90 µg/mL (≈ 1.58 µM) | melting point: 169 °C

COc1nc2ccc(S(C)(=O)=O)cc2cc1C(c1ccc(Cl)cc1)C1(O)CCNC(c2ccc(F)cc2C)C1 (stereo not drawn) [Compound 218]
IC90 STA B29213 [1]: 5.69 µg/mL (≈ 10 µM) | IC90 MSM 607 [2]: 2.85 µg/mL (≈ 5.01 µM) | melting point: 174 °C

COc1nc2ccc(S(C)(=O)=O)cc2cc1C(c1ccc(Cl)cc1)C1(O)CCNC(c2ccc(F)cc2C)C1 (stereo not drawn) [Compound 219]
IC90 STA B29213 [1]: 3.59 µg/mL (≈ 6.31 µM) | IC90 MSM 607 [2]: 1.80 µg/mL (≈ 3.16 µM) | melting point: 156 °C

COc1nc2ccc(Br)cc2cc1C(c1ccc(Cl)cc1)C1(O)CCNCC1Cc1cccc(F)c1 (stereo not drawn) [Compound 226]
IC90 [1]: 1.8 µg/mL (≈ 3.16 µM) | IC90 MSM 607 [2]: 0.90 µg/mL (≈ 1.58 µM) | melting point: 221 °C

COc1nc2ccc(Br)cc2cc1C(c1ccc(Cl)cc1)C1(O)CCNCC1Cc1cccc(F)c1 (stereo not drawn) [Compound 228]
IC90 STA B29213 [1]: 1.80 µg/mL (≈ 3.16 µM) | IC90 MSM 607 [2]: 2.86 µg/mL (≈ 5.02 µM) | melting point: 196 °C

COc1nc2ccc(SC)cc2cc1C(c1ccc(Cl)cc1)C1(O)CCNC(c2ccc(F)cc2C)C1 (stereo not drawn) [Compound 244]
IC90 STA B29213 [1]: 2.40 µg/mL (≈ 4.47 µM) | IC90 MSM 607 [2]: 1.51 µg/mL (≈ 2.81 µM) | melting point: 205 °C

COc1nc2ccc(SC)cc2cc1C(c1ccc(Cl)cc1)C1(O)CCNC(c2ccc(F)cc2C)C1 (stereo not drawn) [Compound 245]
IC90 STA B29213 [1]: 1.91 µg/mL (≈ 3.56 µM) | IC90 MSM 607 [2]: 1.07 µg/mL (≈ 1.99 µM) | melting point: 147 °C

COc1nc2ccc(CN)cc2cc1[C@@H](c1ccccc1)C1(O)CCNC(Cc2ccccc2)C1 (stereo partly drawn) [Compound 246]
IC90 [1]: > 11.8 µg/mL | IC90 [2]: > 11.8 µg/mL | melting point: 100 °C

COc1nc2ccc(Br)cc2cc1C(c1ccccc1)C1(O)CCNC(c2ccc(F)cc2C)C1 (stereo not drawn) [Compound 247]
IC90 STA B29213 [1]: 3.38 µg/mL (≈ 6.31 µM) | IC90 MSM 607 [2]: 1.69 µg/mL (≈ 3.16 µM) | melting point: 132 °C

COc1nc2ccc(Br)cc2cc1C(c1ccccc1)C1(O)CCNC(c2ccc(F)cc2C)C1 (stereo not drawn) [Compound 248]
IC90 STA B29213 [1]: 3.38 µg/mL (≈ 6.31 µM) | IC90 MSM 607 [2]: 2.68 µg/mL (≈ 5.01 µM) | melting point: 134 °C

COc1nc2ccc(Br)cc2cc1C(c1ccccc1)C1(O)CCNC(c2ccc(F)cc2C)C1 (stereo not drawn) [Compound 249]
IC90 STA B29213 [1]: 1.69 µg/mL (≈ 3.16 µM) | IC90 MSM 607 [2]: 1.07 µg/mL (≈ 2 µM) | melting point: 178 °C

COc1nc2ccc(Br)cc2cc1C(c1ccccc1)C1(O)CCNC(c2ccc(F)cc2C)C1 (stereo not drawn) [Compound 250]
IC90 STA B29213 [1]: 1.69 µg/mL (≈ 3.16 µM) | IC90 MSM 607 [2]: 1.35 µg/mL (≈ 2.52 µM) | melting point: 125 °C

COc1nc2ccc(S(C)(=O)=O)cc2cc1C(c1ccccc1)C1(O)CCNC(c2ccc(F)cc2C)C1 (stereo not drawn) [Compound 251]
IC90 STA B29213 [1]: 13.43 µg/mL (≈ 25.1 µM) | IC90 MSM 607 [2]: 10.67 µg/mL (≈ 20 µM) | melting point: 183 °C

COc1nc2ccc(S(C)(=O)=O)cc2cc1C(c1ccccc1)C1(O)CCNC(c2ccc(F)cc2C)C1 (stereo not drawn) [Compound 252]
IC90 STA B29213 [1]: >13.43 µg/mL | IC90 MSM 607 [2]: >13.43 µg/mL | melting point: 152 °C

COc1nc2ccc(Br)cc2cc1C(c1ccc(Cl)cc1)C1(O)CCNC(CC2CCCCC2)C1 (stereo not drawn) [Compound 256]
IC90 STA B29213 [1]: 2.49 µg/mL (≈ 4.46 µM) | IC90 MSM 607 [2]: 2.22 µg/mL (≈ 3.98 µM) | melting point: 118 °C

COc1nc2ccc(Br)cc2cc1C(c1ccc(Cl)cc1)C1(O)CCNC(CC2CCCCC2)C1 (stereo not drawn) [Compound 257]
IC90 STA B29213 [1]: 4.97 µg/mL (≈ 8.91 µM) | IC90 MSM 607 [2]: 3.14 µg/mL (≈ 5.63 µM) | melting point: 108 °C

COc1nc2ccc(Br)cc2cc1C(c1ccc(Cl)cc1)C1(O)CCNC(CC2CCCCC2)C1 (stereo not drawn) [Compound 259]
IC90 STA B29213 [1]: 1.76 µg/mL (≈ 3.15 µM) | IC90 MSM 607 [2]: 1.40 µg/mL (≈ 2.51 µM) | melting point: 168 °C

COc1nc2ccc(SC)cc2cc1C(c1ccc(Cl)cc1)C1(O)CCNC(Cc2ccc(F)cc2)C1 (stereo not drawn) [Compound 260]
IC90 STA B29213 [1]: 3.39 µg/mL (≈ 6.31 µM) | IC90 MSM 607 [2]: 3.39 µg/mL (≈ 6.31 µM) | melting point: 104 °C

COc1nc2ccc(SC)cc2cc1C(c1ccc(Cl)cc1)C1(O)CCNC(Cc2ccc(F)cc2)C1 (stereo not drawn) [Compound 261]
IC90 STA B29213 [1]: 1.70 µg/mL (≈ 3.17 µM) | IC90 MSM 607 [2]: 1.70 µg/mL (≈ 3.17 µM) | melting point: 122 °C

COc1nc2ccc(SC)cc2cc1C(c1ccc(Cl)cc1)C1(O)CCNC(Cc2ccc(F)cc2)C1 (stereo not drawn) [Compound 262]
IC90 STA B29213 [1]: 7.59 µg/mL (≈ 14.1 µM) | IC90 MSM 607 [2]: 3.39 µg/mL (≈ 6.31 µM) | melting point: 94 °C

COc1nc2ccc(SC)cc2cc1C(c1ccc(Cl)cc1)C1(O)CCNC(c2ccc(F)cc2C)C1 (stereo not drawn) [Compound 273]
IC90 STA B29213 [1]: 3.39 µg/mL (≈ 6.31 µM) | IC90 MSM 607 [2]: 1.70 µg/mL (≈ 3.17 µM) | melting point: 204 °C

COc1nc2ccc(SC)cc2cc1C(c1ccc(Cl)cc1)C1(O)CCNC(c2ccc(F)cc2C)C1 (stereo not drawn) [Compound 275]
IC90 STA B29213 [1]: 0.85 µg/mL (≈ 1.58 µM) | IC90 MSM 607 [2]: 1.35 µg/mL (≈ 2.51 µM) | melting point: 140 °C

COc1nc2ccc(SC)cc2cc1C(c1ccc(Cl)cc1)C1(O)CCNCC1Cc1cccc(F)c1 (stereo not drawn) [Compound 283]
IC90 STA B29213 [1]: 3.39 µg/mL (≈ 6.31 µM) | IC90 MSM 607 [2]: 3.39 µg/mL (≈ 6.31 µM) | melting point: 184 °C

COc1nc2ccc(SC)cc2cc1C(c1ccc(Cl)cc1)C1(O)CCNC(CC2CCCCC2)C1 (stereo not drawn) [Compound 287]
IC90 [1]: 3.31 µg/mL (≈ 6.3 µM) | IC90 [2]: 2.63 µg/mL (≈ 5.01 µM) | melting point: 185 °C

COc1nc2ccc(S(C)(=O)=O)cc2cc1C(c1ccc(Cl)cc1)C1(O)CCNCC1Cc1cccc(F)c1 (stereo not drawn) [Compound 291]
IC90 [1]: 7.16 µg/mL (≈ 12.6 µM) | IC90 MSM 607 [2]: 7.16 µg/mL (≈ 12.6 µM) | melting point: 150 °C

COc1nc2ccc(SC)cc2cc1C(c1ccc(Cl)cc1)C1(O)CCNC(Cc2ccc(F)cc2)C1 (stereo not drawn) [Compound 299]
IC90 STA B29213 [1]: 1.70 µg/mL (≈ 3.17 µM) | IC90 MSM 607 [2]: 1.35 µg/mL (≈ 2.51 µM) | melting point: 110 °C

COc1nc2ccc(SC)cc2cc1C(c1ccc(Cl)cc1)C1(O)CCNC(Cc2ccc(F)cc2)C1 (stereo not drawn) [Compound 300]
IC90 STA B29213 [1]: 1.07 µg/mL (≈ 1.99 µM) | IC90 MSM 607 [2]: 1.70 µg/mL (≈ 3.17 µM) | melting point: 90 °C
